Measured values from patent publication US12252481B2, “Anti-viral compounds” (Aligos Therapeutics, Inc., priority 2021, dated 2025).
pEC50, pIC50: −log10 of the molar value. Like-named read-outs stand apart in the source and are kept apart here.

Key:
SARS-Cov-2 3CLpro = target: T1, SARS-Cov-2 3CLpro (Severe acute respiratory syndrome coronavirus 2, UniProt P0DTD1); test: biochemical; settings: 3CLpro, 30 mins preincubation, SAMDI-MS; read-out: SARS-Cov-2 IC50 (class)
T1 construct: 3CLpro and HRV3C was added using a Multidrop Combi

HRV3C = target: T2, HRV3C (Human rhinovirus 14, UniProt P03303); test: biochemical; parameters: species or system HRV; settings: HRV3C, 30 mins preincubation, SAMDI-MS
T2 construct: 3CLpro and HRV3C was added using a Multidrop Combi
T2 sequence (P03303 1538-1719): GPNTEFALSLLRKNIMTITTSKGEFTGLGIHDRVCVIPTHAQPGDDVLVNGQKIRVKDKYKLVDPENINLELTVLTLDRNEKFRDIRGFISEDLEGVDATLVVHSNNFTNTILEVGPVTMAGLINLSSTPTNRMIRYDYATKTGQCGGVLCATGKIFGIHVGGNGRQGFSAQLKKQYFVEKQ

[1] = tested on: human beta-coronavirus OC43; test: OC43 coronavirus antiviral assay in HeLa cells (cytopathic effect, cell-titer-glo); type: cell-based; settings: Betacoronavirus 1, OC43, HeLa, 144 h, 6 days at 33° C.
[2] = tested on: SARS-CoV-2-GHB-03021/2020; type: cell-based; settings: read-out: VeroE6 + CP (EC50)
[3] = tested on: B.1.1.7 lineage SARS-CoV-2; test: microbe, parasite or virus in culture; type: cell-based; settings: Severe acute respiratory syndrome coronavirus 2, 96 h; read-out: A549-dual_ACE2_TMPRSS2 (EC50)
human cathepsin L = target: T3, human cathepsin L (Homo sapiens, UniProt P07711); test: Cathepsin L assay (Z-FR-AMC fluorescence); type: biochemical; settings: 10 pM human cathepsin L, 30 mins preincubation, Z-FR-AMC 2 μM
T3 construct: purchased R&D Systems
T3 sequence (P07711 114-333): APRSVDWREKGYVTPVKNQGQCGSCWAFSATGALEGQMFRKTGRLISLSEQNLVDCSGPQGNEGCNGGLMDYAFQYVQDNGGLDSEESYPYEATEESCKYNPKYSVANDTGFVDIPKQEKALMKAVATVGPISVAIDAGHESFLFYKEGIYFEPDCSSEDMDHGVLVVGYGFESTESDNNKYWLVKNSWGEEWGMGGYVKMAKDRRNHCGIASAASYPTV
Method in brief: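 IC50 values were taken from four-parameter fits of fluorescence read at 355/460 nm every 2 minutes for 30 minutes. The reaction started when 2 μM Z-FR-AMC was added. Before that, 10 pM human cathepsin L had been preincubated with inhibitor for 30 minutes.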

| SMILES | pIC50 (SARS-Cov-2 3CLpro) | pIC50 (HRV3C; read-out: HRV IC50 (bound)) | pEC50 ([1]; read-out: EC50 (class)) | pEC50 [2] | pEC50 [3] | pIC50 (human cathepsin L) | pEC50 ([1]; read-out: EC50 (bound)) | pIC50 (HRV3C; read-out: HRV IC50 (class)) |
| --- | --- | --- | --- | --- | --- | --- | --- | --- |
| CC(C)(C)[C@H](NC(=O)C(F)(F)F)C(=O)N1C[C@H]2[C@@H]([C@H]1C(=O)N[C@H](C#N)CC1Cn3nccc3NC1=O)[C@H]1C=C[C@@H]2C1 (stereo partly drawn) [Example 9, (1S,3aR,4S,7R,7aS)—N-((1S)-1-cyano-2-(5-oxo-4,5,6,7-tetrahydropyrazolo[1,5-a]pyrimidin-6-yl)ethyl)-2-((S)-3,3-dimethyl-2-(2,2,2-trifluoroacetamido)butanoyl)-2,3,3a,4,7,7a-hexahydro-1H-4,7-methanoisoindole-1-carboxamide] | > 7.70 | < 5.00 | > 7.00 | > 7.00 | 6.00 to 7.00 | ≤ 5.00 |  |  |
| CC(C)(C)[C@H](OCC1CC1)C(=O)N1C[C@H]2[C@@H]([C@H]1C(=O)N[C@H](C#N)C[C@@H]1CCNC1=O)[C@H]1C=C[C@@H]2C1 [Compound 56] | 5.70 to 6.70 | < 5.00 |  | 5.00 to 6.00 | 5.00 to 6.00 | ≤ 5.00 | < 5.00 |  |
| CC(C)(C)[C@H](NC(=O)C(F)(F)F)C(=O)N1C[C@H]2[C@@H]([C@H]1C(=O)NC(C#N)CC1CCc3cnnn31)[C@H]1C=C[C@@H]2C1 (stereo partly drawn) [Example 37, (1R,2S,3S,6R,7S)—N-(1-cyano-2-{4H,5H,6H-pyrrolo[1,2-c][1,2,3]triazol-6-yl}ethyl)-4-[(2S)-3,3-dimethyl-2-(2,2,2-trifluoroacetamido)butanoyl]-4-azatricyclo[5.2.1.0^{2,6}]dec-8-ene-3-carboxamide] | 6.70 to 7.70 | < 5.00 |  | 5.00 to 6.00 | 5.00 to 6.00 | ≤ 5.00 | < 5.00 |  |
| CC(C)(C)[C@H](NC(=O)[C@H]1CCCO1)C(=O)N1C[C@H]2[C@@H]([C@H]1C(=O)N[C@H](C#N)C[C@@H]1CCNC1=O)[C@H]1C=C[C@@H]2C1 [Example 22, (1S,3aR,4S,7R,7aS)-N-((S)-1-cyano-2-((S)-2-oxopyrrolidin-3-yl)ethyl)-2-((S)-3,3-dimethyl-2-((R)-tetrahydrofuran-2-carboxamido)butanoyl)-2,3,3a,4,7,7a-hexahydro-1H-4,7-methanoisoindole-1-carboxamide] | 5.70 to 6.70 | < 5.00 | 5.00 to 6.00 | 5.00 to 6.00 | 5.00 to 6.00 | ≤ 5.00 |  |  |
| CC(C)(C)[C@H](NC(=O)C(F)(F)F)C(=O)N1C[C@@H]2[C@@H]3CC[C@@H](C3)[C@@H]2[C@H]1C(=O)N[C@H](C#N)CC1Cn2nccc2NC1=O (relative stereo) [Compound 17a, (1S,3aR,4R,7S,7aS)-N-((S)-1-cyano-2-((R*)-5-oxo-4,5,6,7-tetrahydropyrazolo[1,5-a]pyrimidin-6-yl)ethyl)-2-((S)-3,3-dimethyl-2-(2,2,2-trifluoroacetamido)butanoyl)octahydro-1H-4,7-methanoisoindole-1-carboxamide] | > 7.70 | < 5.00 | > 7.00 | > 7.00 | 6.00 to 7.00 | ≤ 5.00 |  |  |
| CC(C)(C)[C@H](NC(=O)C1(F)CC1)C(=O)N1C[C@H]2[C@@H]([C@H]1C(=O)N[C@H](C#N)C[C@@H]1CCNC1=O)[C@H]1C=C[C@@H]2C1 [Example 30, (1R,2S,3S,6R,7S)—N-[(1S)-1-cyano-2-[(3S)-2-oxopyrrolidin-3-yl]ethyl]-4-[(2S)-2-[(1-fluorocyclopropyl)formamido]-3,3-dimethylbutanoyl]-4-azatricyclo[5.2.1.0^{2,6}]dec-8-ene-3-carboxamide] | > 7.70 | < 5.00 | > 7.00 | > 7.00 | > 7.00 | ≤ 5.00 |  |  |
| N#C[C@H](C[C@@H]1CCNC1=O)NC(=O)[C@@H]1[C@@H]2[C@H](CN1C(=O)[C@@H](NC(=O)C(F)(F)F)C13CC(C1)C3)[C@@H]1C=C[C@H]2C1 [Example 27, (1R,2S,3S,6R,7S)-4-[(2S)-2-{bicyclo[1.1.1]pentan-1-yl}-2-(2,2,2-trifluoroacetamido)acetyl]-N-[(1S)-1-cyano-2-[(3S)-2-oxopyrrolidin-3-yl]ethyl]-4-azatricyclo[5.2.1.0^{2,6}]dec-8-ene-3-carboxamide] | > 7.70 | < 5.00 | > 7.00 | > 7.00 | 6.00 to 7.00 | ≤ 5.00 |  |  |
| O=C(NC1CC1)C(=O)C(C[C@@H]1CCNC1=O)NC(=O)[C@@H]1[C@@H]2[C@H](CN1C(=O)[C@@H]1C[C@]13CCCc1ccccc13)[C@@H]1C=C[C@H]2C1 (stereo partly drawn) [Example 11, (1S,3aR,4S,7R,7aS)—N-(4-(cyclopropylamino)-3,4-dioxo-1-((S)-2-oxopyrrolidin-3-yl)butan-2-yl)-2-((1R,2R)-3′,4′-dihydro-2′H-spiro[cyclopropane-1,1′-naphthalene]-2-carbonyl)-2,3,3a,4,7,7a-hexahydro-1H-4,7-methanoisoindole-1-carboxamide] | > 7.70 |  | 6.00 to 7.00 | 6.00 to 7.00 | 6.00 to 7.00 | ≤ 5.00 |  | 5.70 to 6.70 |
| CC(C)(C)[C@H](NC(=O)C(F)(F)Cl)C(=O)N1C[C@@H]2[C@@H]3CC[C@@H](C3)[C@@H]2[C@H]1C(=O)N[C@H](C#N)C[C@@H]1CCNC1=O [Example 40, (1S,2S,3S,6R,7R)-4-[(2S)-2-(2-chloro-2,2-difluoroacetamido)-3,3-dimethylbutanoyl]-N-[(1S)-1-cyano-2-[(3S)-2-oxopyrrolidin-3-yl]ethyl]-4-azatricyclo[5.2.1.0^{2,6}]decane-3-carboxamide] | > 7.70 | < 5.00 | > 7.00 | > 7.00 | > 7.00 | ≤ 5.00 |  |  |
| CC(C)(C)[C@H](NC(=O)C(F)(F)F)C(=O)N1C[C@H]2[C@@H]([C@H]1C(=O)N[C@H](C#N)C[C@@H]1CCNC1=O)[C@H]1CC[C@@H]2O1 (mixture of isomers) [Compound 58, (1S,3aR,4S,7R,7aS)-N-((S)-1-cyano-2-((S)-2-oxopyrrolidin-3-yl)ethyl)-2-((S)-3,3-dimethyl-2-(2,2,2-trifluoroacetamido)butanoyl)octahydro-1H-4,7-epoxyisoindole-1-carboxamide] | 5.70 to 6.70 | < 5.00 | 5.00 to 6.00 | 5.00 to 6.00 | 5.00 to 6.00 | ≤ 5.00 |  |  |
| CC(C)(C)[C@H](NC(=O)C(F)(F)F)C(=O)N1C[C@H]2[C@@H]([C@H]1C(=O)N[C@H](C#N)C[C@@H]1CCNC1=O)[C@H]1C=C[C@@H]2CC1 (mixture of isomers) [Compound 59] | > 7.70 | < 5.00 | > 7.00 | > 7.00 | > 7.00 | ≤ 5.00 |  |  |
| N#C[C@H](C[C@@H]1CCNC1=O)NC(=O)[C@@H]1[C@@H]2[C@H](CN1C(=O)c1cc3c(Cl)cc(Cl)cc3[nH]1)[C@@H]1C=C[C@H]2C1 [Compound 44, (1S,3aR,4S,7R,7aS)-N-((S)-1-cyano-2-((S)-2-oxopyrrolidin-3-yl)ethyl)-2-(4,6-dichloro-1H-indole-2-carbonyl)-2,3,3a,4,7,7a-hexahydro-1H-4,7-methanoisoindole-1-carboxamide] | 6.70 to 7.70 | < 5.00 | 6.00 to 7.00 | 5.00 to 6.00 | 5.00 to 6.00 | ≤ 5.00 |  |  |
| CC(C)(C)[C@H](NC(=O)C(F)(F)F)C(=O)N1C[C@@H]2[C@@H]3CC[C@@H](C3)[C@@H]2[C@H]1C(=O)N[C@H](C#N)C[C@H]1Cn2nccc2NC1=O (relative stereo) [Compound 17b] | > 7.70 | < 5.00 | 6.00 to 7.00 | 6.00 to 7.00 | 6.00 to 7.00 | ≤ 5.00 |  |  |
| CC(C)(C)[C@H](NC(=O)C(F)(F)Cl)C(=O)N1C[C@H]2[C@@H]([C@H]1C(=O)N[C@H](C#N)C[C@@H]1CCNC1=O)[C@H]1C=C[C@@H]2C1 [Example 39, (1R,2S,3S,6R,7S)-4-[(2S)-2-(2-chloro-2,2-difluoroacetamido)-3,3-dimethylbutanoyl]-N-[(1S)-1-cyano-2-[(3S)-2-oxopyrrolidin-3-yl]ethyl]-4-azatricyclo[5.2.1.0^{2,6}]dec-8-ene-3-carboxamide] | > 7.70 | < 5.00 | > 7.00 | > 7.00 | > 7.00 | ≤ 5.00 |  |  |
| N#C[C@H](C[C@@H]1CCNC1=O)NC(=O)[C@@H]1[C@@H]2[C@H](CN1C(=O)[C@@H]1C[C@]13CCOc1ccccc13)[C@@H]1C=C[C@H]2C1 (relative stereo) [Compound 55, (1S,3aR,4S,7R,7aS)-N-((S)-1-cyano-2-((S)-2-oxopyrrolidin-3-yl)ethyl)-2-((2′R*,4S*)-spiro[chromane-4,1′-cyclopropane]-2′-carbonyl)-2,3,3a,4,7,7a-hexahydro-1H-4,7-methanoisoindole-1-carboxamide] | 6.70 to 7.70 | < 5.00 | 5.00 to 6.00 | 6.00 to 7.00 | 6.00 to 7.00 | ≤ 5.00 |  |  |
